Our source for the Solubility values is patent publication US20070027079A1, “GHRP 2 strips” (priority 2005, published 2007).

A short description of this series: Certificate of analysis GHRP-2: solubility. The format is physicochemical. The following applies: specification: soluble in water and 1% acetic acid at a concentration of ≧1 mg/ml to give a clear, colorless solution; batch 6P-20030403.

Where a SMILES comes first, the peptide text is derived from it. [ ]: non-standard residue; d: D form. d2Nal = N[C@H](Cc1ccc2ccccc2c1)C(=O)O

On to `C[C@H](NC(=O)[C@@H](Cc1ccc2ccccc2c1)NC(=O)[C@@H](C)N)C(=O)N[C@@H](Cc1c[nH]c2ccccc12)C(=O)N[C@H](Cc1ccccc1)C(=O)N[C@@H](CCCCN)C(N)=O` [GHRP-2, D-Ala-D-Nal-Ala-Trp-D-Phe-Lys-NH2] (H-[dA][d2Nal]AW[dF]K-NH2), for which the Solubility entry is reported as “Complies”.
